Source: patent US7932269B2, “Sulfonamides as orexin antagonists” (Hoffmann-La Roche Inc., priority 2008, dated 2011)

Molecular target: T1, human orexin-2 (hOX2) receptors (Homo sapiens, UniProt O43614)
T1 construct: expressed in transfected cells
T1 sequence (O43614 1-444): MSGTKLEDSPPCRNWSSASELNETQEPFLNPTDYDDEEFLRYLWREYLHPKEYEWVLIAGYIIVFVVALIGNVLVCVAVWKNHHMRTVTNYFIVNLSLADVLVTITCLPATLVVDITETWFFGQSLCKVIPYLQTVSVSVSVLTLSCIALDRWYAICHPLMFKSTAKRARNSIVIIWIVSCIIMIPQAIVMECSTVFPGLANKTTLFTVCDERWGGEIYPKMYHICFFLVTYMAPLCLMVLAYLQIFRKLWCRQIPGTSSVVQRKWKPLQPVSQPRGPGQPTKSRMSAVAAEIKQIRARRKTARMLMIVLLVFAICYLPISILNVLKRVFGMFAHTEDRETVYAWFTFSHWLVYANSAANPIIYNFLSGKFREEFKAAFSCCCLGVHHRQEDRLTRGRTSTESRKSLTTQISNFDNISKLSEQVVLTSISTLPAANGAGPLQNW
Experiment: Intracellular Ca2+ mobilization assay (FLIPR), orexin-A as agonist
Format: cell-based
Details: CHO(dHFr-) cells stably expressing hOX2; antagonist applied 25 min before EC80 of orexin-A; Kb=IC50/(1+[A]/EC50); read-out: Kb (μM) OX2R (human)
Description: Intracellular Ca^2+ Mobilization Assay
The Chinese Hamster Ovary (dHFr-) mutant cell line stably expressing human orexin-1 (hOX1) or human orexin-2 (hOX2) receptors were maintained in Dulbecco's Modified Eagle Medium (1X) with GlutaMax™ 1, 4500 mg/L D-Glucose and Sodium Pyruvate (Catalog No. 31966-021, Invitrogen, Carlsbad, Calif.), 5% dialyzed fetal calf serum (Catalog No. 26400-044), 100 μg/ml penicillin and 100 μg/ml streptomycin. The cells were seeded at 5×10^4 cells/well in the poly-D-lysine treated, 96-well, black/clear-bottomed plates (Catalog No. BD356640, BD Biosciences, Palo Alto, Calif.). 24 h later, the cells were loaded for 1 hr at 37° C. with 4 μM Flou-4 acetoxymethyl ester (Catalog No. F-14202, Molecular Probes, Eugene, Oreg.) in FLIPR buffer (1×HBSS, 20 mM HEPES, 2.5 mM Probenecid). Hanks' Balanced Salt Solution (HBSS) (10X) (catalog No. 14065-049) and HEPES (1M) (catalog No. 15630-056) were purchased from Invitrogen, Carlsbad, Calif. Probenecid (250 mM) (catalog No. P8761) was from Sigma, Buchs, Switzerland. The cells were washed five times with FLIPR buffer to remove excess dye and intracellular calcium mobilization, [Ca^2+] were measured using a Fluorometric Imaging Plate Reader (FLIPR-96, Molecular Devices, Menlo Park, Calif.) as described previously (Malherbe et al., Mol. Pharmacol., 64, 823-832, 2003). Orexin A (catalog No.1455, Toris Cookson Ltd, Bristol, UK) was used as agonist. Orexin A ([…] stock solution in DMSO) was diluted in FLIPR buffer +0.1% BSA. The EC50 and EC80 values of orexin-A were measured daily from standard agonist concentration-response curves in CHO(dHFr-)-OX1R and —OX2R cell lines. All compounds were dissolved in 100% DMSO. Inhibition curves were determined by addition of 11 concentrations (0.0001-10 μM) of inhibitory compounds and using EC80 value of orexin-A as agonist (a concentration which gave 80% of max agonist response, determined daily). The antagonists were applied 25 min (incubation at 37° C.) before the application of the agonist. Responses were measured as peak increase in fluorescence minus basal, normalized to the maximal stimulatory effect induced by EC80 value of orexin-A or orexin-B. Inhibition curves were fitted according to the Hill equation: y=100/(1+(x/1C50)^nH), where nH=slope factor using Excel-fit 4 software (Microsoft). Kb values were calculated according to the following equation Kb=IC50/(1+[A]/EC50) where A is the concentration of agonist added which is very close to agonist EC80 value, and IC50 and EC50 values were derived from the antagonist inhibition and orexin-A or B agonist curves, respectively.

Q: Which Kb does the source give for `COc1cccc(S(=O)(=O)N(CC(=O)N2CCCC2c2ccccc2)c2ccc(Cl)cc2)c1` (centres unmarked) [Example 1, N-(4-Chloro-phenyl)-3-methoxy-N-[2-oxo-2-(2-phenyl-pyrrolidin-1-yl)-ethyl]-benzenesulfonamide] here?
A: Its Kb is 0.0017 µM.

Q: For `COc1ccc(S(=O)(=O)N(CC(=O)N2CCCC2c2ccccc2)c2ccc(Cl)cc2)cc1` (centres unmarked) [Example 2, N-(4-Chloro-phenyl)-4-methoxy-N-[2-oxo-2-(2-phenyl-pyrrolidin-1-yl)-ethyl]-benzenesulfonamide], which Kb is on record?
A: The Kb was 0.0049 µM.

Q: Which Kb does the source give for `Cc1ccccc1S(=O)(=O)N(CC(=O)N1CCCC1c1ccccc1)c1ccc(Cl)cc1` (centres unmarked) [Example 3, N-(4-Chloro-phenyl)-2-methyl-N-[2-oxo-2-(2-phenyl-pyrrolidin-1-yl)-ethyl]-benzenesulfonamide] here?
A: The Kb was 0.0005 µM.

Q: How did the Kb turn out when `O=C(CN(c1ccc(Cl)cc1)S(=O)(=O)c1cccc(Cl)c1)N1CCCC1c1ccccc1` (centres unmarked) [Example 4, 3-Chloro-N-(4-chloro-phenyl)-N-[2-oxo-2-(2-phenyl-pyrrolidin-1-yl)-ethyl]-benzenesulfonamide] was run?
A: The Kb was 0.0011 µM.

Q: Which Kb does the source give for `Cc1ccc(S(=O)(=O)N(CC(=O)N2CCCC2c2ccccc2)c2ccc(Cl)cc2)cc1` (centres unmarked) [Example 5, N-(4-Chloro-phenyl)-4-methyl-N-[2-oxo-2-(2-phenyl-pyrrolidin-1-yl)-ethyl]-benzenesulfonamide] here?
A: The Kb was 0.0019 µM.

Q: Which Kb does the source give for `COc1ccc(S(=O)(=O)N(CC(=O)N2CCCC2c2ccccc2)c2ccc(Cl)cc2)cc1` (centres unmarked) [Example 6, N-(4-Chloro-phenyl)-4-methoxy-N-[2-oxo-2-(2-phenyl-pyrrolidin-1-yl)-ethyl]-benzenesulfonamide] here?
A: Its Kb is 0.0042 µM.

Q: Which Kb does the source give for `O=C(CN(c1ccc(Cl)cc1)S(=O)(=O)c1ccccc1Cl)N1CCCC1c1ccc(F)cc1` (centres unmarked) [Example 7, 2-Chloro-N-(4-chloro-phenyl)-N-{2-[2-(4-fluoro-phenyl)-pyrrolidin-1-yl]-2-oxo-ethyl}-benzenesulfonamide] here?
A: Its Kb is 0.0007 µM.

Q: How did the Kb turn out when `O=C(CN(c1ccc(Cl)cc1)S(=O)(=O)c1ccc(Cl)cc1)N1CCCC1c1ccccc1` (centres unmarked) [Example 8, 4-Chloro-N-(4-chloro-phenyl)-N-[2-oxo-2-(2-phenyl-pyrrolidin-1-yl)-ethyl]-benzenesulfonamide] was run?
A: Its Kb is 0.0022 µM.

Q: With `Cc1cccc(S(=O)(=O)N(CC(=O)N2CCCC2c2ccccc2)c2ccc(Cl)cc2)c1` (centres unmarked) [Example 11, N-(4-Chloro-phenyl)-3-methyl-N-[2-oxo-2-(2-phenyl-pyrrolidin-1-yl)-ethyl]-benzenesulfonamide] as the molecule, how does the Kb read?
A: The Kb was 0.0005 µM.

Q: For `O=C(CN(c1ccc(Cl)cc1)S(=O)(=O)c1ccccc1Cl)N1CCCC1c1ccccc1` (centres unmarked) [Example 12, 2-Chloro-N-(4-chloro-phenyl)-N-[2-oxo-2-(2-phenyl-pyrrolidin-1-yl)-ethyl]-benzenesulfonamide], which Kb is on record?
A: Its Kb is 0.0012 µM.

Q: Which Kb does the source give for `O=C(CN(c1ccc(Cl)cc1)S(=O)(=O)c1ccccc1F)N1CCCC1c1ccccc1` (centres unmarked) [Example 13, N-(4-Chloro-phenyl)-2-fluoro-N-[2-oxo-2-(2-phenyl-pyrrolidin-1-yl)-ethyl]-benzenesulfonamide] here?
A: The Kb was 0.0025 µM.

Q: How did the Kb turn out when `O=C(CN(c1ccc(Cl)cc1)S(=O)(=O)c1cccc(F)c1)N1CCCC1c1ccc(F)cc1` (centres unmarked) [Example 15, N-(4-Chloro-phenyl)-3-fluoro-N-{2-[2-(4-fluoro-phenyl)-pyrrolidin-1-yl]-2-oxo-ethyl}-benzenesulfonamide] was run?
A: Its Kb is 0.0018 µM.

Q: How did the Kb turn out when `O=C(CN(c1ccc(Cl)cc1)S(=O)(=O)c1ccccc1F)N1CCCC1c1ccc(F)cc1` (centres unmarked) [Example 16, N-(4-Chloro-phenyl)-2-fluoro-N-{2-[2-(4-fluoro-phenyl)-pyrrolidin-1-yl]-2-oxo-ethyl}-benzenesulfonamide] was run?
A: Its Kb is 0.0009 µM.

Q: Which Kb does the source give for `O=C(CN(c1ccc(Cl)cc1)S(=O)(=O)c1cccc(Cl)c1)N1CCCC1c1ccc(F)cc1` (centres unmarked) [Example 18, 3-Chloro-N-(4-chloro-phenyl)-N-{2-[2-(4-fluoro-phenyl)-pyrrolidin-1-yl]-2-oxo-ethyl}-benzenesulfonamide] here?
A: The Kb was 0.0014 µM.

Q: `O=C(CN(c1ccc(Cl)cc1)S(=O)(=O)c1ccc(Cl)cc1)N1CCCC1c1ccc(F)cc1` (centres unmarked) [Example 19, 4-Chloro-N-(4-chloro-phenyl)-N-{2-[2-(4-fluoro-phenyl)-pyrrolidin-1-yl]-2-oxo-ethyl}-benzenesulfonamide] was tested. Which Kb did it give?
A: The Kb was 0.002 µM.

Q: With `Cc1ccccc1S(=O)(=O)N(CC(=O)N1CCCC1c1ccc(F)cc1)c1ccc(Cl)cc1` (centres unmarked) [Example 20, N-(4-Chloro-phenyl)-N-{2-[2-(4-fluoro-phenyl)-pyrrolidin-1-yl]-2-oxo-ethyl}-2-methyl-benzenesulfonamide] as the molecule, how does the Kb read?
A: Its Kb is 0.0006 µM.

Q: `COc1cccc(S(=O)(=O)N(CC(=O)N2CCCC2c2ccc(F)cc2)c2ccc(Cl)cc2)c1` (centres unmarked) [Example 21, N-(4-Chloro-phenyl)-N-{2-[2-(4-fluoro-phenyl)-pyrrolidin-1-yl]-2-oxo-ethyl}-3-methoxy-benzenesulfonamide] was tested. Which Kb did it give?
A: The Kb was 0.0006 µM.

Q: With `COc1ccc(S(=O)(=O)N(CC(=O)N2CCCC2c2ccc(F)cc2)c2ccc(Cl)cc2)cc1` (centres unmarked) [Example 22, N-(4-Chloro-phenyl)-N-{2-[2-(4-fluoro-phenyl)-pyrrolidin-1-yl]-2-oxo-ethyl}-4-methoxy-benzenesulfonamide] as the molecule, how does the Kb read?
A: The Kb was 0.0017 µM.

Q: `Cc1ccc(S(=O)(=O)N(CC(=O)N2CCCC2c2ccc(F)cc2)c2ccc(Cl)cc2)cc1` (centres unmarked) [Example 23, N-(4-Chloro-phenyl)-N-{2-[2-(4-fluoro-phenyl)-pyrrolidin-1-yl]-2-oxo-ethyl}-4-methyl-benzenesulfonamide] was tested. Which Kb did it give?
A: Its Kb is 0.0013 µM.

Q: Which Kb does the source give for `Cc1cccc(S(=O)(=O)N(CC(=O)N2CCCC2c2ccc(F)cc2)c2ccc(Cl)cc2)c1` (centres unmarked) [Example 24, N-(4-Chloro-phenyl)-N-{2-[2-(4-fluoro-phenyl)-pyrrolidin-1-yl]-2-oxo-ethyl}-3-methyl-benzenesulfonamide] here?
A: The Kb was 0.0005 µM.

Q: Which Kb does the source give for `COc1ccc(S(=O)(=O)N(CC(=O)N2CCCC2c2ccc(F)cc2)c2ccccc2OC)cc1` (centres unmarked) [Example 26, N-{2-[2-(4-Fluoro-phenyl)-pyrrolidin-1-yl]-2-oxo-ethyl}-4-methoxy-N-(2-methoxy-phenyl)-benzenesulfonamide] here?
A: The Kb was 0.005 µM.

Q: `COc1ccc(N(CC(=O)N2CCCC2c2ccccc2)S(=O)(=O)c2ccc(OC)cc2)cc1` (centres unmarked) [Example 27, 4-Methoxy-N-(4-methoxy-phenyl)-N-[2-oxo-2-(2-phenyl-pyrrolidin-1-yl)-ethyl]-benzenesulfonamide] was tested. Which Kb did it give?
A: The Kb was 0.003 µM.

Q: `COc1ccc(S(=O)(=O)N(CC(=O)N2CCCC2c2ccc(F)cc2)c2cccc(F)c2)cc1` (centres unmarked) [Example 31, N-(3-Fluoro-phenyl)-N-{2-[2-(4-fluoro-phenyl)-pyrrolidin-1-yl]-2-oxo-ethyl}-4-methoxy-benzenesulfonamide] was tested. Which Kb did it give?
A: Its Kb is 0.0064 µM.

Q: `COc1ccc(S(=O)(=O)N(CC(=O)N2CCCC2c2ccccc2)c2cccc(F)c2)cc1` (centres unmarked) [Example 36, N-(3-Fluoro-phenyl)-4-methoxy-N-[2-oxo-2-(2-phenyl-pyrrolidin-1-yl)-ethyl]-benzenesulfonamide] was tested. Which Kb did it give?
A: The Kb was 0.0077 µM.

Q: Which Kb does the source give for `COc1ccc(S(=O)(=O)N(CC(=O)N2CCCC2c2ccccc2)c2ccc(F)cc2)cc1` (centres unmarked) [Example 38, N-(4-Fluoro-phenyl)-4-methoxy-N-[2-oxo-2-(2-phenyl-pyrrolidin-1-yl)-ethyl]-benzenesulfonamide] here?
A: Its Kb is 0.0096 µM.

Q: For `O=C(CN(c1ccc(Cl)cc1)S(=O)(=O)c1ccc(F)cc1)N1CCCC1c1ccc(F)cc1` (centres unmarked) [Example 40, N-(4-Chloro-phenyl)-4-fluoro-N-{2-[2-(4-fluoro-phenyl)-pyrrolidin-1-yl]-2-oxo-ethyl}-benzenesulfonamide], which Kb is on record?
A: The Kb was 0.0005 µM.
